# Key:
# Assay type in all cases: in vivo
# [1] = tested on: barnyardgrass (Echinochloa crus-galli); test: Test A pre-/postemergence plant response
# How it was run: (§1)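 Greenhouse trial, ~10 days. Soil (loam/sand) sprayed preemergence after seeding; emerged plants (1–2 leaf, 2–10 cm) sprayed postemergence in parallel. Response = visual injury vs untreated control, 0–100.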
# corn (Zea mays) = test: Test A pre-/postemergence plant response
# How it was run: as §1
# [2] = tested on: giant foxtail (Setaria faberii); test: Test A pre-/postemergence plant response
# How it was run: as §1
# [3] = tested on: large crabgrass (Digitaria sanguinalis); test: Test A pre-/postemergence plant response
# How it was run: as §1
# [4] = tested on: morningglory (Ipomoea spp.); test: Test A pre-/postemergence plant response
# How it was run: as §1
# [5] = tested on: pigweed (Amaranthus retroflexus); test: Test A pre-/postemergence plant response; conditions: Postemergence
# How it was run: as §1
# [6] = tested on: velvetleaf (Abutilon theophrasti); test: Test A pre-/postemergence plant response
# How it was run: as §1
# [7] = tested on: wheat (Triticum aestivum); test: Test A pre-/postemergence plant response
# How it was run: as §1
# [8] = tested on: winter barley (Hordeum vulgare); test: Test B postemergence plant response
# How it was run: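 Plants at the 1- to 4-leaf stage (2 to 18 cm tall), grown in pots of peat moss/vermiculite medium with wetting agent and starter nutrients, received postemergence applications of test chemicals. After 13 to 15 days in a greenhouse, injury was rated visually against untreated controls on a 0 (no effect) to 100 (complete control) scale.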
# [9] = tested on: barnyardgrass (Echinochloa crus-galli); test: Test B flooded paddy test; conditions: for Plant response rating, Barnyardgrass: Flood (flooded paddy test), 13 to 15 days
# How it was run: (§2)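 Post-flood paddy application: compounds are introduced into water 3 cm deep over the soil, reaching plants at the 2-leaf stage. The water level is maintained, and after 13–15 days under greenhouse conditions, response is judged by eye relative to controls, where 100 means complete control.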
# [10] = tested on: ducksalad (Heteranthera limosa); test: Test B flooded paddy test; conditions: for Plant response rating, Ducksalad: Flood (flooded paddy test), 13 to 15 days
# How it was run: as §2
# rice (Oryza sativa) = test: Test B flooded paddy test; conditions: for Plant response rating, Rice: Flood (flooded paddy test), 13 to 15 days
# How it was run: as §2
# [11] = tested on: umbrella sedge (Cyperus difformis); test: Test B flooded paddy test; conditions: for Plant response rating, Sedge, Umbrella: Flood (flooded paddy test), 13 to 15 days
# How it was run: as §2
# [12] = Postemergence, 125 g ai/ha, 0 to 100 scale where 0 is no effect and 100 is complete control
# [13] = Postemergence, 500 g ai/ha, 0 to 100 scale, 0 = no effect, 100 = complete control, approx. ten days
# [14] = Preemergence, 125 g ai/ha, 0 to 100 scale, 0 = no effect, 100 = complete control
# [15] = Preemergence, 500 g ai/ha, visual injury, 0 to 100 scale (0 no effect, 100 complete control), approx. ten days
# [16] = 250 g ai/ha, flooded paddy test, visual rating on 0 to 100 scale (0 no effect, 100 complete control) after 13 to 15 days
# [17] = 62 g ai/ha, scale of 0 to 100 where 0 is no effect and 100 is complete control
# [18] = 125 g ai/ha, scale 0 to 100, 0 is no effect, 100 is complete control
# [19] = Flood, 31 g ai/ha, scale 0 to 100 (0 no effect, 100 complete control)
compound,measurement,setting,value
COCCn1c(-c2ccccc2)ncc(C(=O)C2=C(O)CCCC2=O)c1=O [Compound 85],"Plant response rating, Barnyardgrass",[1]; [12],90
same,"Plant response rating, Barnyardgrass",[1]; [13],90
same,"Plant response rating, Barnyardgrass",[1]; [14],50
same,"Plant response rating, Barnyardgrass",[1]; [15],100
same,"Plant response rating, Corn",corn (Zea mays); [12],10
same,"Plant response rating, Corn",corn (Zea mays); [13],80
same,"Plant response rating, Corn",corn (Zea mays); [14],0
same,"Plant response rating, Corn",corn (Zea mays); [15],10
same,"Plant response rating, Foxtail, Giant",[2]; [12],70
same,"Plant response rating, Foxtail, Giant",[2]; [13],90
same,"Plant response rating, Foxtail, Giant",[2]; [15],90
same,"Plant response rating, Crabgrass, Large",[3]; [12],90
same,"Plant response rating, Crabgrass, Large",[3]; [13],90
same,"Plant response rating, Crabgrass, Large",[3]; [14],100
same,"Plant response rating, Crabgrass, Large",[3]; [15],100
same,"Plant response rating, Morningglory",[4]; [12],100
same,"Plant response rating, Morningglory",[4]; [13],100
same,"Plant response rating, Morningglory",[4]; [14],50
same,"Plant response rating, Morningglory",[4]; [15],80
same,"Plant response rating, Pigweed","[5]; 125 g ai/ha, 0 to 100 scale where 0 is no effect and 100 is complete control",100
same,"Plant response rating, Pigweed","[5]; 500 g ai/ha, 0 to 100 scale, 0 = no effect, 100 = complete control, approx. ten days",100
same,"Plant response rating, Velvetleaf",[6]; [12],100
same,"Plant response rating, Velvetleaf",[6]; [13],100
same,"Plant response rating, Velvetleaf",[6]; [14],70
same,"Plant response rating, Wheat",[7]; [12],0
same,"Plant response rating, Wheat",[7]; [13],40
same,"Plant response rating, Wheat",[7]; [14],0
same,"Plant response rating, Wheat",[7]; [15],40
same,"Plant response rating, Barley","[8]; 31 g ai/ha, postemergence, scale 0 to 100, 0 is no effect, 100 is complete control",5
same,Barley plant response rating (0 to 100 scale),"[8]; 62 g ai/ha, postemergence, 0 is no effect, 100 is complete control, 13 to 15 days",10
same,"Plant response rating, Barley","[8]; Postemergence, 125 g ai/ha, visual rating after 13 to 15 days, scale 0 (no effect) to 100 (complete control)",20
same,"Plant response rating, Barley","[8]; Postemergence, 250 g ai/ha, scale 0 to 100 (0 no effect, 100 complete control)",20
same,"Plant response rating, Flood, Barnyardgrass",[9]; [16],65
same,"Plant response rating, Barnyardgrass",[9]; [17],25
same,"Plant response rating, Barnyardgrass",[9]; [18],55
same,Barnyardgrass plant response rating,[9]; [19],25
same,"Plant response rating, Flood, Ducksalad",[10]; [16],65
same,"Plant response rating, Ducksalad",[10]; [17],50
same,"Plant response rating, Ducksalad",[10]; [18],60
same,Ducksalad plant response rating,[10]; [19],40
same,"Plant response rating, Flood, Rice",rice (Oryza sativa); [16],20
same,"Plant response rating, Rice",rice (Oryza sativa); [17],0
same,"Plant response rating, Rice",rice (Oryza sativa); [18],15
same,Rice plant response rating,rice (Oryza sativa); [19],0
same,"Plant response rating, Flood, Sedge, Umbrella",[11]; [16],80
same,"Plant response rating, Sedge, Umbrella",[11]; [17],75
same,"Plant response rating, Sedge, Umbrella",[11]; [18],80
same,"Sedge, Umbrella plant response rating",[11]; [19],50
